Test system: 292921-168-R tumor spheroid viability
Experiment: Anticancer human tumor 292921-168-R patient-derived pancreatic carcinoma cell line growth inhibition
Conditions: spheroids with HUVEC and MSC; for IC50: curve of first compound; for viability, T/C: stronger effect = lower value; active = viability on the fitted dose curve at most 10% of control; inactive = the rest
Outline: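 Complex tumor spheroids combined malignant cells with endothelial cells and mesenchymal stem cells. DNA-damaging drugs and DNA repair inhibitors were tested alone and in combination, at half-log dilutions down from clinical Cmax (top 10 microM if Cmax unknown), 0.25% DMSO final.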

[1] = second compound 30 pM, first compound 0.0316 µM
[2] = second compound 30 pM, first compound 0.1 µM
[3] = second compound 30 pM, first compound 0.316 µM
[4] = second compound 30 pM, first compound 1 µM
[5] = second compound 30 pM, first compound 3.16 µM
[6] = second compound 30 pM, first compound 10 µM
[7] = second compound 94.9 pM, first compound 0.0316 µM
[8] = second compound 94.9 pM, first compound 0.1 µM
[9] = second compound 94.9 pM, first compound 0.316 µM
[10] = second compound 94.9 pM, first compound 1 µM
[11] = second compound 94.9 pM, first compound 3.16 µM
[12] = second compound 94.9 pM, first compound 10 µM
[13] = second compound 0.0003 µM, first compound 0.0316 µM
[14] = second compound 0.0003 µM, first compound 0.1 µM
[15] = second compound 0.0003 µM, first compound 0.316 µM
[16] = second compound 0.0003 µM, first compound 1 µM
[17] = second compound 0.0003 µM, first compound 3.16 µM
[18] = second compound 0.0003 µM, first compound 10 µM
[19] = second compound 0.000949 µM, first compound 0.0316 µM
[20] = second compound 0.000949 µM, first compound 0.1 µM
[21] = second compound 0.000949 µM, first compound 0.316 µM
[22] = second compound 0.000949 µM, first compound 1 µM
[23] = second compound 0.000949 µM, first compound 3.16 µM
[24] = second compound 0.000949 µM, first compound 10 µM
[25] = second compound 0.003 µM, first compound 0.0316 µM
[26] = second compound 0.003 µM, first compound 0.1 µM
[27] = second compound 0.003 µM, first compound 0.316 µM
[28] = second compound 0.003 µM, first compound 1 µM
[29] = second compound 0.003 µM, first compound 3.16 µM
[30] = second compound 0.003 µM, first compound 10 µM
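Note: spheroids exposed to compounds for 7 days.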

Cn1ncnc1[C@H]1c2n[nH]c(=O)c3cc(F)cc(c23)N[C@@H]1c1ccc(F)cc1 + COc1cc2c(cc1O)CCNC21CSC2c3c(OC(C)=O)c(C)c4c(c3C(COC1=O)N1C(O)C3Cc5cc(C)c(OC)c(O)c5C(C21)N3C)OCO4
233 nM: IC50 (second compound 94.9 pM)
< 9.49 nM: IC50 (second compound 0.0003 µM) | IC50 (second compound 0.000949 µM) | IC50 (second compound 0.003 µM)
646 nM: IC50 (second compound 30 pM)
inactive: viability, T/C (second compound 30 pM, first compound 0.00949 µM) 103% | viability, T/C (second compound 30 pM, first compound 0.03 µM) 86.9% | viability, T/C (second compound 30 pM, first compound 0.0949 µM) 76.5% | viability, T/C (second compound 30 pM, first compound 0.3 µM) 70.5% | viability, T/C (second compound 30 pM, first compound 0.949 µM) 41.4% | viability, T/C (second compound 30 pM, first compound 3 µM) 11.9% | viability, T/C (second compound 94.9 pM, first compound 0.00949 µM) 85.1% | viability, T/C (second compound 94.9 pM, first compound 0.03 µM) 69.8% | viability, T/C (second compound 94.9 pM, first compound 0.0949 µM) 65.1% | viability, T/C (second compound 94.9 pM, first compound 0.3 µM) 47.5% | viability, T/C (second compound 94.9 pM, first compound 0.949 µM) 26.4% | viability, T/C (second compound 0.0003 µM, first compound 0.00949 µM) 26.6% | viability, T/C (second compound 0.0003 µM, first compound 0.03 µM) 29.4% | viability, T/C (second compound 0.0003 µM, first compound 0.0949 µM) 24.2% | viability, T/C (second compound 0.0003 µM, first compound 0.3 µM) 17.1% | viability, T/C (second compound 0.0003 µM, first compound 0.949 µM) 14.6%
active: viability, T/C (second compound 94.9 pM, first compound 3 µM) 9.68% | viability, T/C (second compound 0.0003 µM, first compound 3 µM) 7% | viability, T/C (second compound 0.000949 µM, first compound 0.00949 µM) 4.23% | viability, T/C (second compound 0.000949 µM, first compound 0.03 µM) 4.2% | viability, T/C (second compound 0.000949 µM, first compound 0.0949 µM) 3.68% | viability, T/C (second compound 0.000949 µM, first compound 0.3 µM) 2.89% | viability, T/C (second compound 0.000949 µM, first compound 0.949 µM) 1.55% | viability, T/C (second compound 0.000949 µM, first compound 3 µM) 0.27% | viability, T/C (second compound 0.003 µM, first compound 0.00949 µM) 0.19% | viability, T/C (second compound 0.003 µM, first compound 0.03 µM) 0.19% | viability, T/C (second compound 0.003 µM, first compound 0.0949 µM) 0.17% | viability, T/C (second compound 0.003 µM, first compound 0.3 µM) 0.22% | viability, T/C (second compound 0.003 µM, first compound 0.949 µM) 0.18% | viability, T/C (second compound 0.003 µM, first compound 3 µM) 0.42%

CC(C)n1c(=O)n(C)c2cnc3cc(F)c(-c4ccc(OCCCN5CCCCC5)nc4)cc3c21 + COc1cc2c(cc1O)CCNC21CSC2c3c(OC(C)=O)c(C)c4c(c3C(COC1=O)N1C(O)C3Cc5cc(C)c(OC)c(O)c5C(C21)N3C)OCO4
3530 nM: IC50 (second compound 30 pM)
< 31.6 nM: IC50 (second compound 94.9 pM) | IC50 (second compound 0.0003 µM) | IC50 (second compound 0.000949 µM) | IC50 (second compound 0.003 µM)
inactive: viability, T/C [1] 52.2% | viability, T/C [2] 64.9% | viability, T/C [3] 60% | viability, T/C [4] 64% | viability, T/C [5] 49.6% | viability, T/C [6] 28.1% | viability, T/C [7] 39.2% | viability, T/C [8] 36% | viability, T/C [9] 39% | viability, T/C [10] 35.8% | viability, T/C [11] 38.6% | viability, T/C [12] 23.9% | viability, T/C [13] 20.9% | viability, T/C [14] 21.3% | viability, T/C [15] 20.8% | viability, T/C [16] 24.8% | viability, T/C [17] 29.4% | viability, T/C [18] 19.5%
active: viability, T/C [19] 2.03% | viability, T/C [20] 2.57% | viability, T/C [21] 2.94% | viability, T/C [22] 4.97% | viability, T/C [23] 7.02% | viability, T/C [24] 5.36% | viability, T/C [25] 0.16% | viability, T/C [26] 0.18% | viability, T/C [27] 0.2% | viability, T/C [28] 0.15% | viability, T/C [29] 0.13% | viability, T/C [30] 0.22%

CC1COCCN1c1cc(-c2ccnn2C)c2ccnc(-c3ccn[nH]3)c2n1 (stereo not given) + COc1cc2c(cc1O)CCNC21CSC2c3c(OC(C)=O)c(C)c4c(c3C(COC1=O)N1C(O)C3Cc5cc(C)c(OC)c(O)c5C(C21)N3C)OCO4
< 31.6 nM: IC50 (second compound 30 pM) | IC50 (second compound 94.9 pM) | IC50 (second compound 0.0003 µM) | IC50 (second compound 0.000949 µM) | IC50 (second compound 0.003 µM)
active: viability, T/C [13] 4.54% | viability, T/C [14] 4.77% | viability, T/C [15] 5.09% | viability, T/C [16] 8.72% | viability, T/C [17] 10.4% | viability, T/C [18] 12.7% | viability, T/C [19] 1.76% | viability, T/C [20] 1.36% | viability, T/C [21] 2.19% | viability, T/C [22] 2.16% | viability, T/C [23] 1.68% | viability, T/C [24] 2.07% | viability, T/C [25] 0.19% | viability, T/C [26] 0.16% | viability, T/C [27] 0.17% | viability, T/C [28] 0.16% | viability, T/C [29] 0.16% | viability, T/C [30] 0.37%
inactive: viability, T/C [1] 17.2% | viability, T/C [2] 10.9% | viability, T/C [3] 10.4% | viability, T/C [4] 13% | viability, T/C [5] 14.3% | viability, T/C [6] 16.4% | viability, T/C [7] 10.2% | viability, T/C [8] 7.28% | viability, T/C [9] 8.41% | viability, T/C [10] 11.8% | viability, T/C [11] 13.9% | viability, T/C [12] 16.9%

Source: PubChem BioAssay AID1845196 (Molecular Pharmacology Branch, DTP, NCI, 2023)
